Experiment [1] deals with T1, ubiquitin-activating enzyme E1 (UBA1) (Homo sapiens, UniProt P22314).
T1 construct: recombinant human UBA1, GST tag removed by thrombin
T1 sequence (P22314 2-1058): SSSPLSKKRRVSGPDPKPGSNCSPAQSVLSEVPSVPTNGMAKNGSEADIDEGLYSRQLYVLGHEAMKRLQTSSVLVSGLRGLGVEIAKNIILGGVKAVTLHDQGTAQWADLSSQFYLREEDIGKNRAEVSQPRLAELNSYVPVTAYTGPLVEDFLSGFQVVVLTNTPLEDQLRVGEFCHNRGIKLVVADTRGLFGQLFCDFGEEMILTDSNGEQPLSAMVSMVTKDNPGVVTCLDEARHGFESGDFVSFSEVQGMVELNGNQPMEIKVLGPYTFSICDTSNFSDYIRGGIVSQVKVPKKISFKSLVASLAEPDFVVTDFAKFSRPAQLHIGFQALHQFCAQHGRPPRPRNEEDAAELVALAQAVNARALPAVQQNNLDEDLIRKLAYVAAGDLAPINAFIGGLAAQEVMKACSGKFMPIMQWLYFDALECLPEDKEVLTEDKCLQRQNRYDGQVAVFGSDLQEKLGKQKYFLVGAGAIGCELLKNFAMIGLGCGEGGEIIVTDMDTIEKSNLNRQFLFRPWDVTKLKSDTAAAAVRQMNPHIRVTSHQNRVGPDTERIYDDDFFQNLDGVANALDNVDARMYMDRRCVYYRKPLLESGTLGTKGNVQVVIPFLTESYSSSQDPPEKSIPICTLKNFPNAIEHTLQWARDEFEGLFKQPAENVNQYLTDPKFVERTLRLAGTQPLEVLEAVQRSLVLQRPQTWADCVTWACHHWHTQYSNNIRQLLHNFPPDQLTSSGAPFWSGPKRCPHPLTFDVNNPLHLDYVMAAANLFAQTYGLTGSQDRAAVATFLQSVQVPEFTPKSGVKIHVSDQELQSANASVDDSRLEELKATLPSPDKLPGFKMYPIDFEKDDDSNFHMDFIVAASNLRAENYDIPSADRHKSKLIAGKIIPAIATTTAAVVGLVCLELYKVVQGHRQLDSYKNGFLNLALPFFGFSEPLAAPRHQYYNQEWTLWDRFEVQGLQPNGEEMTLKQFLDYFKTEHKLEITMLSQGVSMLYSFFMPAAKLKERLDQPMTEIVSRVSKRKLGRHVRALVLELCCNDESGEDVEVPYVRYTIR
As to the kind of experiment: E1-ubiquitin thioester gel assay with fluorescein-ubiquitin. The experiment is classed as biochemical.

Experiment [2] deals with T1, ubiquitin-activating enzyme E1 (UBA1). As to the kind of experiment: thioester gel assay; PPi:ATP and AMP:ATP exchange assays. The experiment is classed as biochemical.

This note sets out measurements from paper PMC3261141, “Largazole and Its Derivatives Selectively Inhibit Ubiquitin Activating Enzyme (E1)” (PLoS ONE, 2012).

Each structure is given as a SMILES string.

For the compound `CCCCCCCC(=O)SCC/C=C/[C@@H]1CC(=O)NCc2nc(cs2)C2=N[C@@](C)(CS2)C(=O)N[C@@H](C(C)C)C(=O)O1` [L, Largazole], the IC50 in experiment [1] is around 29 µM.

In experiment [1], `CCCCCCCC(=O)OCC/C=C/[C@@H]1CC(=O)NCc2nc(cs2)C2=N[C@@](C)(CS2)C(=O)N[C@@H](C(C)C)C(=O)O1` [E, Largazole ester] yielded an IC50 of around 25 µM.

As for `CCCCCCCC(=O)CCC/C=C/[C@@H]1CC(=O)NCc2nc(cs2)C2=N[C@@](C)(CS2)C(=O)N[C@@H](C(C)C)C(=O)O1` [K, Largazole ketone], the IC50 in experiment [2] was around 30 µM.
